From patent US8242145B2, “Cyclic diaryl ether compounds as antagonists of prostaglandin D2 receptors” (Panmira Pharmaceuticals, LLC, priority 2008, dated 2012)

Columns and labels:
[1] = molecular target: T1, recombinant human CRTH2 receptor (Homo sapiens, UniProt Q9Y5Y4); assay: GTPγS binding assay; type: biochemical; details: +HSA; read-out: hDP2 GTPγS μM (+HSA)
T1 construct: expressed in transfected cells
T1 sequence (Q9Y5Y4 1-395): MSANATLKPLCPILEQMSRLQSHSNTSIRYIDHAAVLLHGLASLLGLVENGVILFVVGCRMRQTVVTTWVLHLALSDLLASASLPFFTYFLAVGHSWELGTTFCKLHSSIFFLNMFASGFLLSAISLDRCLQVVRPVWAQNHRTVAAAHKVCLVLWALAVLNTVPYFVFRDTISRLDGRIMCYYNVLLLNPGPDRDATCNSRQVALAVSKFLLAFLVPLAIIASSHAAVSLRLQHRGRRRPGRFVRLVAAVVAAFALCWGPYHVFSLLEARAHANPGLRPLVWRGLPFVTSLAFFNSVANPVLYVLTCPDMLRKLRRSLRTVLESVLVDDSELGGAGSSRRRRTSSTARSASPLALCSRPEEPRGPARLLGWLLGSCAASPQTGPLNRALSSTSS
In short: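 Membranes from CHO cells stably expressing recombinant receptor (~12.5 μg/well), incubated 60 min at 30° C with 0.05 nM [^35S]-GTPγS, 80 nM PGD2, 5 μM GDP in pH 7.4 Hepes buffer with 0.2% human serum albumin. Filter-bound radioactivity counted; specific binding = total minus binding without PGD2; IC50 from titration curves.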

human DP2 receptor = molecular target: T2, human DP2 receptor (Homo sapiens, UniProt Q9Y5Y4); assay: DP2/CRTH2 radioligand binding assay using [3H]PGD2; details: hDP2 (CRTH2) binding assay
T2 construct: expressed in transfected cells
T2 sequence (Q9Y5Y4 1-395): T1 sequence (Q9Y5Y4 1-395)
In short: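 HEK293 membranes with stable recombinant human DP2, incubated with 1 nM [3H]PGD2 and compound 60 min at room temperature in pH 7.4 HEPES/MnCl2/EDTA buffer, with or without 0.2% human serum albumin.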

human DP1 receptor = molecular target: T3, human DP1 receptor (Homo sapiens, UniProt Q13258); assay: DP1 radioligand binding assay using [3H]BWA868C; details: hDP1 binding
T3 construct: tissue Biological Specialty Corporation; host or cells: human platelets, membranes
T3 sequence (Q13258 1-359): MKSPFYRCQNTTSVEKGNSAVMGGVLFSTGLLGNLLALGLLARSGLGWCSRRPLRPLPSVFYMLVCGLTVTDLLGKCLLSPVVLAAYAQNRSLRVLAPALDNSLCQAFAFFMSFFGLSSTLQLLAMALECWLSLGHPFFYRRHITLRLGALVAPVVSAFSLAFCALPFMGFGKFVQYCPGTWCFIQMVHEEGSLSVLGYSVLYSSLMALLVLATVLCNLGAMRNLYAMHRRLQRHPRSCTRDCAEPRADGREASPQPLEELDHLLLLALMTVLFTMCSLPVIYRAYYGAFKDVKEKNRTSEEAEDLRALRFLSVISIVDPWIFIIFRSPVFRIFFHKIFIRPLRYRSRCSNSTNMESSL
In short: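 Human platelet membranes (20 μg protein/well) incubated 60 min at room temperature with 2 nM [3H]BWA868C in 50 mM Hepes, 10 mM MnCl2, 1 mM EDTA, ±0.2% human serum albumin, pH 7.4. Bound label measured after filtration; nonspecific binding defined with 10 μM BW A868C. IC50 from titration curves.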

SMILES	IC50 [1] [µM]	IC50 (human DP2 receptor) [nM]	IC50 (human DP1 receptor) [nM]
C[C@@H]1[C@H](c2ccccc2)OC(=O)N1Cc1cc(C(F)(F)F)ccc1Oc1cc(CC(=O)O)ccc1O [Compound 1-78, {4-Hydroxy-3-[2-((4R,5S)-4-methyl-2-oxo-5-phenyl-oxazolidin-3-ylmethyl)-4-trifluoromethyl-phenoxy]-phenyl}-acetic acid]	< 0.3	< 300	> 1000
C[C@@H]1[C@H](c2ccccc2)OC(=O)N1Cc1cc(C(F)(F)F)ccc1Oc1cc(CC(=O)O)ccc1-c1cnn(C)c1 [Compound 1-79, [3-[2-((4R,5S)-4-Methyl-2-oxo-5-phenyl-oxazolidin-3-ylmethyl)-4-trifluoromethyl-phenoxy]-4-(1-methyl-1H-pyrazol-4-yl)-phenyl]-acetic acid]	< 0.3	< 300	> 1000
C[C@@H]1[C@H](c2ccccc2)OC(=O)N1Cc1cc(C(F)(F)F)ccc1Oc1cc(CC(=O)O)ccc1-c1ccccc1 [Compound 1-80, {2-[2-((4R,5S)-4-Methyl-2-oxo-5-phenyl-oxazolidin-3-ylmethyl)-4-trifluoromethyl-phenoxy]-biphenyl-4-yl}-acetic acid]	< 0.3	< 300	> 1000
COc1ccc(CC(=O)O)cc1Oc1cc(Br)ccc1CN1C(=O)O[C@H](c2ccccc2)[C@@H]1C [Compound 1-81, {3-[5-Bromo-2-((4S,5R)-4-methyl-2-oxo-5-phenyl-oxazolidin-3-ylmethyl)-phenoxy]-4-methoxy-phenyl}-acetic acid]	< 0.3	< 300	> 1000
COc1ccc(CC(=O)O)cc1Oc1cc(Br)ccc1CN1C(=O)O[C@@H](c2ccccc2)[C@H]1C [Compound 1-82, {3-[5-Bromo-2-((4R,5S)-4-Methyl-2-oxo-5-phenyl-oxazolidin-3-ylmethyl)-phenoxy]-4-methoxy-phenyl}-acetic acid]	< 0.3	< 300	> 1000
CCOc1ccc(CC(=O)O)cc1Oc1ccc(C(F)(F)F)cc1CN1C(=O)O[C@@H](c2ccccc2)[C@H]1C [Compound 1-83, {4-Ethoxy-3-[2-((4R,5S)-4-methyl-2-oxo-5-phenyl-oxazolidin-3-ylmethyl)-4-trifluoromethyl-phenoxy]-phenyl}-acetic acid]	< 0.3	< 300	> 1000
Cn1cc(-c2ccc(Oc3cccc(CC(=O)O)c3)c(CN3CCOC3=O)c2)cn1 [Compound 1-84, {3-[4-(1-Methyl-1H-pyrazol-4-yl)-2-(2-oxo-oxazolidin-3-ylmethyl)-phenoxy]-phenyl}-acetic acid]	0.3 to 1	300 to 1000	> 1000
CS(=O)(=O)c1ccc(-c2ccc(Oc3cccc(CC(=O)O)c3)c(CN3CCOC3=O)c2)cc1 [Compound 1-85, {3-[4′-Methanesulfonyl-3-(2-oxo-oxazolidin-3-ylmethyl)-biphenyl-4-yloxy]-phenyl}-acetic acid]	0.3 to 1	< 300	> 1000
COc1ccc(CC(=O)O)cc1Oc1ccc(Cl)cc1CN1CCOC1=O [Compound 1-86, {3-[4-Chloro-2-(2-oxo-oxazolidin-3-ylmethyl)-phenoxy]-4-methoxy-phenyl}-acetic acid]	< 0.3	< 300	> 1000
C[C@@H]1[C@H](c2ccccc2)OC(=O)N1Cc1cc(Br)ccc1Oc1cc(CC(=O)O)ccc1O [Compound 1-87, {3-[4-Bromo-2-((4R,5S)-4-methyl-2-oxo-5-phenyl-oxazolidin-3-ylmethyl)-phenoxy]-4-hydroxy-phenyl}-acetic acid]	< 0.3	< 300	> 1000
CCOc1ccc(CC(=O)O)cc1Oc1ccc(Br)cc1CN1C(=O)O[C@@H](c2ccccc2)[C@H]1C [Compound 1-88, {3-[4-Bromo-2-((4R,5S)-4-methyl-2-oxo-5-phenyl-oxazolidin-3-ylmethyl)-phenoxy]-4-ethoxy-phenyl}-acetic acid]	< 0.3	< 300	> 1000
O=C(O)Cc1cc(Cl)cc(Oc2ccc(Br)cc2CN2CCOC2=O)c1 [Compound 1-89, {3-[4-Bromo-2-(2-oxo-oxazolidin-3-ylmethyl)-phenoxy]-5-chloro-phenyl}-acetic acid]	< 0.3	< 300	> 1000
COc1ccc(CC(=O)O)cc1Oc1ccc(NC(=O)c2ccc(Cl)cc2)cc1CN1CCOC1=O [Compound 1-91, {3-[4-(4-Chloro-benzoylamino)-2-(2-oxo-oxazolidin-3-ylmethyl)-phenoxy]-4-methoxy-phenyl}-acetic acid]	> 1	< 300	> 1000
O=C(O)Cc1cccc(Oc2ccc(Br)cc2CN2C(=O)O[C@H]3Cc4ccccc4[C@H]32)c1 [Compound 2-1, {3-[4-Bromo-2-((3aR,8aS)-2-oxo-8,8a-dihydro-3aH-indeno[1,2-d]oxazol-3-ylmethyl)-phenoxy]-phenyl}-acetic acid]	< 0.3	< 300	> 1000
O=C(O)Cc1cccc(Oc2ccc(Br)cc2CN2C(=O)O[C@@H]3Cc4ccccc4[C@@H]32)c1 [Compound 2-2, {3-[4-Bromo-2-((3aS,8aR)-2-oxo-8,8a-dihydro-3aH-indeno[1,2-d]oxazol-3-ylmethyl)-phenoxy]-phenyl}-acetic acid]	< 0.3	< 300	> 1000
O=C(O)Cc1cccc(Oc2ccc(C(F)(F)F)cc2CN2C(=O)O[C@@H]3Cc4ccccc4[C@@H]32)c1 [Compound 2-3, {3-[2-((3aS,8aR)-2-Oxo-8,8a-dihydro-3aH-indeno[1,2-d]oxazol-3-ylmethyl)-4-trifluoromethyl-phenoxy]-phenyl}-acetic acid]	0.3 to 1	< 300	> 1000
COc1ccc(CC(=O)O)cc1Oc1ccc(Br)cc1CN1C(=O)O[C@H]2Cc3ccccc3[C@H]21 [Compound 2-4, {3-[4-Bromo-2-((3aR,8aS)-2-oxo-8,8a-dihydro-3aH-indeno[1,2-d]oxazol-3-ylmethyl)-phenoxy]-4-methoxy-phenyl}-acetic acid]	< 0.3	< 300	> 1000
COc1ccc(CC(=O)O)cc1Oc1ccc(Br)cc1CN1C(=O)O[C@@H]2Cc3ccccc3[C@@H]21 [Compound 2-5, {3-[4-Bromo-2-((3aS,8aR)-2-oxo-8,8a-dihydro-3aH-indeno[1,2-d]oxazol-3-ylmethyl)-phenoxy]-4-methoxy-phenyl}-acetic acid]	< 0.3	< 300	> 1000
O=C(O)Cc1cccc(Oc2ccc(C(F)(F)F)cc2CN2C(=O)OC3c4ccccc4CC32)c1 (stereo not drawn) [Compound 2-7, {3-[2-(2-Oxo-4,8b-dihydro-3aH-indeno[2,1-d]oxazol-3-ylmethyl)-4-trifluoromethyl-phenoxy]-phenyl}-acetic acid]	< 0.3	< 300	> 1000
O=C(O)Cc1cccc(Oc2ccc(Br)cc2CN2CC(c3ccc(Cl)cc3)CC2=O)c1 (stereo not drawn) [Compound 3-2, (3-{4-Bromo-2-[4-(4-chloro-phenyl)-2-oxo-pyrrolidin-1-ylmethyl]-phenoxy}-phenyl)-acetic acid]	> 1	< 300	300 to 1000
O=C(O)CCn1c2c(c3ccccc31)C[C@H](NS(=O)(=O)c1ccc(F)cc1)CC2 [Ramatroban, reference compound]	0.3 to 1	300 to 1000	> 1000
